Where a name gives a salt, the structure may show the parent alone.
Target: T1, human M1 receptor (hCHRM1) (Homo sapiens, UniProt P11229)
T1 construct: expressed in transfected cells; host or cells: CHO-K1
T1 sequence (P11229 1-460): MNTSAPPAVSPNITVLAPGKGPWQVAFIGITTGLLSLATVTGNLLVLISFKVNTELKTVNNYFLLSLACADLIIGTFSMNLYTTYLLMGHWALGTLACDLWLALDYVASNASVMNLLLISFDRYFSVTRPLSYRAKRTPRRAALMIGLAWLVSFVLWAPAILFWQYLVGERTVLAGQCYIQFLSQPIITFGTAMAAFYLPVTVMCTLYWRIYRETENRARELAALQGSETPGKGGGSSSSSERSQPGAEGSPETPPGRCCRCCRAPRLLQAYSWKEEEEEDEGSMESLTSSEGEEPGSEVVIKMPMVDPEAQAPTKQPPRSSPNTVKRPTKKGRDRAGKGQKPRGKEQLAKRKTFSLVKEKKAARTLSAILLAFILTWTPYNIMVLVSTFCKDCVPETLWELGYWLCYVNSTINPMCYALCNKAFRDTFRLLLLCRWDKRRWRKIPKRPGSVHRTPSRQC
Assay: Measurement of M1 receptor positive allosteric modulator (M1PAM) activity (calcium fluorescence, Fluo-4, FDSS)
Format: cell-based
Conditions: for activity (%) at 10 μM: 10 μM test compound, acetylcholine EC20 (final 0.8 nM) present, 100% = acetylcholine 1 μM, 0% = DMSO, CHO-K1 hCHRM1 cells; for EC50: inflection point of concentration-dependent curve, CHO-K1 cells stably expressing hCHRM1, in presence of acetylcholine at EC20 concentration (final 0.8 nM), read-out: IP value
Method: Measurement of M1 receptor positive allosteric modulator (M1PAM) activity
The activity of a test compound in the presence of acetylcholine at EC20 concentration (final concentration 0.8 nM), which affords an action corresponding to about 20% of the maximum activity, was measured as PAM activity. The method is as follows. CHO-K1 cells stably expressing a human M1 receptor (hCHRM1) were plated on a 384-well black clear bottom plate (BD Falcon) at 5,000 cells/well, and cultured in an incubator at 37° C., 5% CO2 for 1 day. The medium in the cell plate was removed, and assay buffer A containing a calcium indicator (Recording medium (DOJINDO LABORATORIES), 0.1% BSA (Wako Pure Chemical Industries, Ltd.), 2.5 μg/mL Fluo-4 AM (DOJINDO LABORATORIES), 0.08% Pluronic F127 (DOJINDO LABORATORIES) and 1.25 mM probenecid (DOJINDO LABORATORIES) were added at 30 μL/well. The cells were left standing in the incubator at 37° C., 5% CO2 for 30 min, and further left standing at room temperature for 30 min. A test compound prepared by diluting with assay buffer B (HESS (Invitrogen), 20 mM HEPES (Invitrogen), 0.1% BSA) containing 3.2 nM acetylcholine was added at 10 μL/well, and the fluorescence was measured by FDSS/μcell (Hamamatsu Photonics K.K.) for 1 min every for 1 second. With the definition that the amount of change in the fluorescence on addition of acetylcholine (final concentration 1 μM) is 100% and that on addition of DMSO instead of a test compound is 0%, the activity (%) of the test compound was calculated, and the inflection point in the concentration-dependent curve of the test compound was calculated as IP values.

Row | activity (%) at 10 μM | EC50 | Compound
1 | 92% | 52 nM | Cc1c(Cc2ccc(-n3cccn3)cc2)cc2c(=O)n([C@H]3CCCC[C@@H]3O)cnc2c1C (relative stereo) [Example 1, 3-(trans-2-hydroxycyclohexyl)-7,8-dimethyl-6-(4-(1H-pyrazol-1-yl)benzyl)quinazolin-4(3H)-one]
2 | 96% | 61 nM | Cc1c(Cc2ccc(-n3cccn3)cc2)cc2c(=O)n([C@H]3CCC[C@@H]3O)cnc2c1C (relative stereo) [Example 2, 3-(trans-2-hydroxycyclopentyl)-7,8-dimethyl-6-(4-(1H-pyrazol-1-yl)benzyl)quinazolin-4(3H)-one]
3 | 98% | 15 nM | Cc1c(Cc2ccc(-n3cccn3)cc2)cc2c(=O)n([C@H]3COCC[C@@H]3O)cnc2c1C (relative stereo) [Example 3, 3-(trans-4-hydroxytetrahydro-2H-pyran-3-yl)-7,8-dimethyl-6-(4-(1H-pyrazol-1-yl)benzyl)quinazolin-4(3H)-one]
4 | 101% | 15 nM | Cc1c(Cc2ccc(-c3cn(C)nn3)cc2)cc2c(=O)n([C@H]3CCC[C@@H]3O)cnc2c1C (relative stereo) [Example 11, 3-(trans-2-hydroxycyclopentyl)-7,8-dimethyl-6-(4-(1-methyl-1H-1,2,3-triazol-4-yl)benzyl)quinazolin-4(3H)-one]
5 | 99% | 39 nM | Cc1cc(-c2ccc(Cc3cc4c(=O)n([C@H]5CCC[C@@H]5O)cnc4c(C)c3C)cn2)ccn1 (relative stereo) [Example 12, 3-(trans-2-hydroxycyclopentyl)-7,8-dimethyl-6-((2′-methyl-2,4′-bipyridin-5-yl)methyl)quinazolin-4(3H)-one]
6 | 100% | 11 nM | Cc1c(Cc2ccc(-c3cn(C)nn3)nc2)cc2c(=O)n([C@H]3CCC[C@@H]3O)cnc2c1C (relative stereo) [Example 14, 3-(trans-2-hydroxycyclopentyl)-7,8-dimethyl-6-((6-(1-methyl-1H-1,2,3-triazol-4-yl)pyridin-3-yl)methyl)quinazolin-4(3H)-one]
7 | 100% | 11 nM | Cc1c(Cc2ccc(-c3cnn(C)c3)nc2)cc2c(=O)n([C@H]3CCC[C@@H]3O)cnc2c1C (relative stereo) [Example 15, 3-(trans-2-hydroxycyclopentyl)-7,8-dimethyl-6-((6-(1-methyl-1H-pyrazol-4-yl)pyridin-3-yl)methyl)quinazolin-4(3H)-one]
8 | 90% | 55 nM | Cc1c(Cc2ccc(-c3cnn(C)c3)cc2)cc2c(=O)n([C@H]3CCC[C@@H]3O)cnc2c1C (relative stereo) [Example 17, 3-(trans-2-hydroxycyclopentyl)-7,8-dimethyl-6-(4-(1-methyl-1H-pyrazol-4-yl)benzyl)quinazolin-4(3H)-one]
9 | 97% | 66 nM | Cc1c(Cc2ccc(Cl)nc2)cc2c(=O)n([C@H]3CCCC[C@@H]3O)cnc2c1C (relative stereo) [Example 19, 6-((6-chloropyridin-3-yl)methyl)-3-(trans-2-hydroxycyclohexyl)-7,8-dimethylquinazolin-4(3H)-one]
10 | 97% | 61 nM | COc1cc(Cc2ccc(-c3cnn(C)c3)cc2)cc2c(=O)n([C@H]3CCC[C@@H]3O)cnc12 (relative stereo) [Example 20, 3-(trans-2-hydroxycyclopentyl)-8-methoxy-6-(4-(1-methyl-1H-pyrazol-4-yl)benzyl)quinazolin-4(3H)-one]
11 | 97% | 51 nM | Cc1cc2ncn([C@H]3CCC[C@@H]3O)c(=O)c2cc1Cc1ccc(-c2cn(C)nn2)cc1 (relative stereo) [Example 21, 3-(trans-2-hydroxycyclopentyl)-7-methyl-6-(4-(1-methyl-1H-1,2,3-triazol-4-yl)benzyl)quinazolin-4(3H)-one]
12 | 96% | 41 nM | Cc1ccc(Cc2cc3c(=O)n([C@H]4CCCC[C@@H]4O)cnc3c(C)c2C)cn1 (relative stereo) [Example 35, 3-(trans-2-hydroxycyclohexyl)-7,8-dimethyl-6-((6-methylpyridin-3-yl)methyl)quinazolin-4(3H)-one]
13 | 94% | 70 nM | Cc1c(Cc2ccc(-c3cn(C)nn3)cc2)cc2c(=O)n([C@H]3CCC[C@@H]3O)nnc2c1C (relative stereo) [Example 40, 3-(trans-2-hydroxycyclopentyl)-7,8-dimethyl-6-(4-(1-methyl-1H-1,2,3-triazol-4-yl)benzyl)-1,2,3-benzotriazin-4(3H)-one]
14 | 100% | 31 nM | Cc1c(Cc2ccc(-n3ccnc3)nc2)cc2c(=O)n([C@H]3COCC[C@@H]3O)nnc2c1C (relative stereo) [Example 42, 3-(trans-4-hydroxytetrahydro-2H-pyran-3-yl)-6-((6-(1H-imidazol-1-yl)pyridin-3-yl)methyl)-7,8-dimethyl-1,2,3-benzotriazin-4(3H)-one]
15 | 97% | 32 nM | Cc1c(Cc2ccc(-c3ccn(C)n3)cc2)cc2c(=O)n([C@H]3COCC[C@@H]3O)nnc2c1C (relative stereo) [Example 46, 3-(trans-4-hydroxytetrahydro-2H-pyran-3-yl)-7,8-dimethyl-6-(4-(1-methyl-1H-pyrazol-3-yl)benzyl)-1,2,3-benzotriazin-4(3H)-one]
16 | 95% | 79 nM | Cc1c(Cc2ccc(-c3cn(C)nn3)cc2)cc2c(=O)n([C@H]3CCC[C@@H]3O)cnc2c1C (single isomer, unassigned) [Example 22, 3-(trans-2-hydroxycyclopentyl)-7,8-dimethyl-6-(4-(1-methyl-1H-1,2,3-triazol-4-yl)benzyl)quinazolin-4(3H)-one]
17 | 88% | 13 nM | Cc1c(Cc2ccc(-c3cn(C)nn3)cc2)cc2c(=O)n([C@@H]3CCC[C@H]3O)cnc2c1C (single isomer, unassigned) [Example 23, 3-(trans-2-hydroxycyclopentyl)-7,8-dimethyl-6-(4-(1-methyl-1H-1,2,3-triazol-4-yl)benzyl)quinazolin-4(3H)-one]
18 | 102% | 6.5 nM | Cc1c(Cc2ccc(-c3cnn(C)c3)nc2)cc2c(=O)n([C@H]3CCC[C@@H]3O)cnc2c1C (single isomer, unassigned) [Example 50, 3-(trans-2-hydroxycyclopentyl)-7,8-dimethyl-6-((6-(1-methyl-1H-pyrazol-4-yl)pyridin-3-yl)methyl)quinazolin-4(3H)-one]
19 | 97% | 79 nM | Cc1c(Cc2ccc(-c3cnn(C)c3)nc2)cc2c(=O)n([C@H]3CCC[C@@H]3O)cnc2c1C (single isomer, unassigned) [Example 51, 3-(trans-2-hydroxycyclopentyl)-7,8-dimethyl-6-((6-(1-methyl-1H-pyrazol-4-yl)pyridin-3-yl)methyl)quinazolin-4(3H)-one]
20 | 98% | 6 nM | Cc1c(Cc2ccc(-n3cccn3)cc2)cc2c(=O)n([C@H]3COCC[C@@H]3O)cnc2c1C (single isomer, unassigned) [Example 52, 3-(trans-4-hydroxytetrahydro-2H-pyran-3-yl)-7,8-dimethyl-6-(4-(1H-pyrazol-1-yl)benzyl)quinazolin-4(3H)-one]
21 | 95% | 62 nM | Cc1c(Cc2ccc(-c3cnn(C)c3)nc2)cc2c(=O)n(CC3CCCO3)cnc2c1Cl (centres unmarked) [Example 25, 8-chloro-7-methyl-6-((6-(1-methyl-1H-pyrazo-4-yl)pyridin-3-yl)methyl)-3-(tetrahydrofuran-2-ylmethyl)quinazolin-4(3H)-one hydrochloride]
22 | 100% | 17 nM | Cc1c(Cc2ccc(-n3cccn3)cc2)cc2c(=O)n([C@H]3COCC[C@@H]3O)cnc2c1F [Example 38, 8-fluoro-3-((3S,4S)-4-hydroxytetrahydro-2H-pyran-3-yl)-7-methyl-6-(4-(1H-pyrazol-1-yl)benzyl)quinazolin-4(3H)-one]
